{"source": "patent US10266537B2", "about": "“3-acetylenyl-pyrazole-pyrimidine derivative, and preparation method therefor and uses thereof” (Si Chuan University, priority 2015, dated 2019)", "key": {"SW1990": {"test_system": "SW1990", "assay": "Cell proliferation inhibition assay (MTT)", "assay_type": "cell-based", "conditions": "Homo sapiens, SW1990, 72 h, read-out: Proliferation inhibitory activity IC50", "protocol": "(§1) The cells were seeded in 96-well plates with 200 μL of cell suspension per well and incubated overnight in a cell culture medium with a cell concentration of 1 2×10^4 cells/mL. The next day, the supernatant was discarded (the suspension cell was centrifuged before it) and the cells were treated with gradient concentrations of the test compound, respectively. […] After 72 hours, add 20 μL of MTT reagent at a concentration of 5 mg/mL per well. After incubation for 2-4 h, the supernatant was discarded and 150 μL of DMSO was added to each well. […] Relative cell proliferation inhibition rate=([MUT]-[MUT])×100%/[MUT]. The experiment was repeated at least 3 times. Experimental data were expressed as mean, data statistics using t test, P<0.05 for the difference was statistically significant."}, "Lyn": {"target": "Lyn (Homo sapiens (Human), UniProt P07948)", "assay": "Kinase inhibition assay (KinaseProfiler, 33P-ATP)", "assay_type": "biochemical", "conditions": "Lyn(h); compound at 10 μM; read-out: The percentage of the remaining active protein"}, "JNK1α1(h)": {"target": "JNK1α1(h) (Homo sapiens (Human), UniProt P45983)", "sequence (P45983 other isoform, or with tags, fused parts or gaps)": "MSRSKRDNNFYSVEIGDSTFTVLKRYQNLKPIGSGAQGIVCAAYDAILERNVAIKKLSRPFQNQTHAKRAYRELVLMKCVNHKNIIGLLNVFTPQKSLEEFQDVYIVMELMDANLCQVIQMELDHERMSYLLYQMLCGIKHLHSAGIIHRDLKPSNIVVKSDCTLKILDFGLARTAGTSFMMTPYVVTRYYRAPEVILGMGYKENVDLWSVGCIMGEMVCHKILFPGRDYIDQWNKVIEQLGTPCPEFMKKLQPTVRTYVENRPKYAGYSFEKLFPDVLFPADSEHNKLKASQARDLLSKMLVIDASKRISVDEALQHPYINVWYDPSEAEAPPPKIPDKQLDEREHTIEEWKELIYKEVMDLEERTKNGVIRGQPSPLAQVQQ", "assay": "Kinase inhibition assay (KinaseProfiler, 33P-ATP)", "assay_type": "biochemical", "conditions": "compound at 10 μM, read-out: The percentage of the remaining active protein"}, "BT474": {"test_system": "BT474", "assay": "Cell proliferation inhibition assay (MTT)", "assay_type": "cell-based", "conditions": "Homo sapiens, BT-474, 72 h, read-out: Proliferation inhibitory activity IC50", "protocol": "as §1"}, "TBK1(h)": {"target": "TBK1(h) (Homo sapiens (Human), UniProt Q9UHD2)", "assay": "Kinase inhibition assay (KinaseProfiler, 33P-ATP)", "assay_type": "biochemical", "conditions": "compound at 10 μM, read-out: The percentage of the remaining active protein"}, "TrkA": {"target": "TrkA (Homo sapiens (Human), UniProt P04629)", "assay": "Kinase inhibition assay (KinaseProfiler, 33P-ATP)", "assay_type": "biochemical", "conditions": "TrkA(h); compound at 10 μM; read-out: The percentage of the remaining active protein"}, "DDR1": {"target": "DDR1 (Homo sapiens (Human), UniProt Q08345)", "assay": "Kinase inhibition assay (KinaseProfiler, 33P-ATP)", "assay_type": "biochemical", "conditions": "DDR1; ATP at Km"}, "RAMOS": {"test_system": "RAMOS", "assay": "Cell proliferation inhibition assay (MTT)", "assay_type": "cell-based", "conditions": "Homo sapiens, Ramos, 72 h, read-out: Proliferation inhibitory activity IC50", "protocol": "as §1"}, "Yes": {"target": "Yes (Homo sapiens (Human), UniProt P07947)", "sequence (P07947 whole entry)": "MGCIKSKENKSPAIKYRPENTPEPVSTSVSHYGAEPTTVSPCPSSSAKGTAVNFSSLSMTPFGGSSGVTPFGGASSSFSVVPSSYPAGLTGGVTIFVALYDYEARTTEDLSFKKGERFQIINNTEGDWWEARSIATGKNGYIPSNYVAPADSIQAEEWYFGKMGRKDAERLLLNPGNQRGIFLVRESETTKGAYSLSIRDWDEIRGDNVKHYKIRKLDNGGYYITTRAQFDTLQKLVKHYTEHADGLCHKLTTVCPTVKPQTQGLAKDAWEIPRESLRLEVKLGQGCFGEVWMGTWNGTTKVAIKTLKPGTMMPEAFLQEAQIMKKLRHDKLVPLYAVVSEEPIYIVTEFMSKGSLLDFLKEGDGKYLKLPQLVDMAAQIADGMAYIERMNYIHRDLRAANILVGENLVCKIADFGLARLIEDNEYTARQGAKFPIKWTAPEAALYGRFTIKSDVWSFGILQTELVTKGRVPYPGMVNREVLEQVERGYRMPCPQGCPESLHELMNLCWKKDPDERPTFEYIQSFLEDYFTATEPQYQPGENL", "assay": "Kinase inhibition assay (KinaseProfiler, 33P-ATP)", "assay_type": "biochemical"}, "Met(h)": {"target": "Met(h) (Homo sapiens (Human), UniProt P08581)", "assay": "Kinase inhibition assay (KinaseProfiler, 33P-ATP)", "assay_type": "biochemical", "conditions": "compound at 10 μM, read-out: The percentage of the remaining active protein"}, "EphA8(h)": {"target": "EphA8(h) (Homo sapiens (Human), UniProt P29322)", "assay": "Kinase inhibition assay (KinaseProfiler, 33P-ATP)", "assay_type": "biochemical", "conditions": "compound at 10 μM, read-out: The percentage of the remaining active protein"}, "Axl": {"target": "Axl (Homo sapiens (Human), UniProt P30530)", "sequence (P30530 26-894)": "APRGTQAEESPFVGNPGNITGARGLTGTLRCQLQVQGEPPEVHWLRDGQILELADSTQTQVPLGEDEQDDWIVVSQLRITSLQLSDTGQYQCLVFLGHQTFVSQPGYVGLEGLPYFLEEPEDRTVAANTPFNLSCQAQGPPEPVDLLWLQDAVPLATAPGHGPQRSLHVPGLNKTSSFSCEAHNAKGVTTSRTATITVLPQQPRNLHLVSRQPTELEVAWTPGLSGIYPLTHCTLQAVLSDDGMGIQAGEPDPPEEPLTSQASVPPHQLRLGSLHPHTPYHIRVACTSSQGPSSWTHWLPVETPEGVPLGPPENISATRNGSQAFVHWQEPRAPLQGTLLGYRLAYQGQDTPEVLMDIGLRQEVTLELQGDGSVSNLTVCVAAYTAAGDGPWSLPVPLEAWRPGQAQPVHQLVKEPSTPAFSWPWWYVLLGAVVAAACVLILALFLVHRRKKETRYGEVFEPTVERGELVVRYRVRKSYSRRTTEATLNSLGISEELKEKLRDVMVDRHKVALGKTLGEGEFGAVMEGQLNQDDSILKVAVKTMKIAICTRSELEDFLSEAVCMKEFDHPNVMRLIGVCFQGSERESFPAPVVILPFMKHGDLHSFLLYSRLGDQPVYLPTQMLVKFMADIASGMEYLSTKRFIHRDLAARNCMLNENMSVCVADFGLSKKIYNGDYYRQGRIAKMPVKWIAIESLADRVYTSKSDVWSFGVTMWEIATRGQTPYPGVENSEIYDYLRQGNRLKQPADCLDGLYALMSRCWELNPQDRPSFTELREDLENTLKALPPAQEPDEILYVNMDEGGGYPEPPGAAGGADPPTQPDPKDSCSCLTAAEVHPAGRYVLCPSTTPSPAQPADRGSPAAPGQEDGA", "assay": "Kinase inhibition assay (KinaseProfiler, 33P-ATP)", "assay_type": "biochemical"}, "ALK(h)": {"target": "ALK(h) (Homo sapiens (Human), UniProt Q9UM73)", "assay": "Kinase inhibition assay (KinaseProfiler, 33P-ATP)", "assay_type": "biochemical", "conditions": "compound at 10 μM, read-out: The percentage of the remaining active protein"}, "EphB4": {"target": "EphB4 (Homo sapiens (Human), UniProt P54760)", "assay": "Kinase inhibition assay (KinaseProfiler, 33P-ATP)", "assay_type": "biochemical", "conditions": "EphB4; ATP at Km"}, "Abl": {"target": "Abl (Homo sapiens (Human), UniProt P00519)", "assay": "Kinase inhibition assay (KinaseProfiler, 33P-ATP)", "assay_type": "biochemical", "conditions": "Abl; ATP at Km"}, "CFPAC": {"test_system": "CFPAC", "assay": "Cell proliferation inhibition assay (MTT)", "assay_type": "cell-based", "conditions": "Homo sapiens, 72 h, read-out: Proliferation inhibitory activity IC50", "protocol": "as §1"}, "FAK(h)": {"target": "FAK(h) (Homo sapiens (Human), UniProt Q05397)", "assay": "Kinase inhibition assay (KinaseProfiler, 33P-ATP)", "assay_type": "biochemical", "conditions": "compound at 10 μM, read-out: The percentage of the remaining active protein"}, "CDK7": {"target": "CDK7 (Homo sapiens (Human), UniProt P50613)", "assay": "Kinase inhibition assay (KinaseProfiler, 33P-ATP)", "assay_type": "biochemical", "conditions": "CDK7; compound at 10 μM; read-out: The percentage of the remaining active protein"}, "Itk(h)": {"target": "Itk(h) (Homo sapiens (Human), UniProt Q08881)", "assay": "Kinase inhibition assay (KinaseProfiler, 33P-ATP)", "assay_type": "biochemical", "conditions": "compound at 10 μM, read-out: The percentage of the remaining active protein"}, "A549": {"test_system": "A549", "assay": "Cell proliferation inhibition assay (MTT)", "assay_type": "cell-based", "conditions": "Homo sapiens, A549, 72 h, read-out: Proliferation inhibitory activity IC50", "protocol": "as §1"}, "ErbB2": {"target": "ErbB2 (Homo sapiens (Human), UniProt P04626)", "assay": "Kinase inhibition assay (KinaseProfiler, 33P-ATP)", "assay_type": "biochemical", "conditions": "ErbB2(h); compound at 10 μM; read-out: The percentage of the remaining active protein"}, "PKBα(h)": {"target": "PKBα(h) (Homo sapiens (Human), UniProt P31749)", "assay": "Kinase inhibition assay (KinaseProfiler, 33P-ATP)", "assay_type": "biochemical", "conditions": "compound at 10 μM, read-out: The percentage of the remaining active protein"}, "RIPK2(h)": {"target": "RIPK2(h) (Homo sapiens (Human), UniProt O43353)", "assay": "Kinase inhibition assay (KinaseProfiler, 33P-ATP)", "assay_type": "biochemical", "conditions": "compound at 10 μM, read-out: The percentage of the remaining active protein"}, "KDR": {"target": "KDR (Homo sapiens (Human), UniProt P35968)", "sequence (P35968 20-1356)": "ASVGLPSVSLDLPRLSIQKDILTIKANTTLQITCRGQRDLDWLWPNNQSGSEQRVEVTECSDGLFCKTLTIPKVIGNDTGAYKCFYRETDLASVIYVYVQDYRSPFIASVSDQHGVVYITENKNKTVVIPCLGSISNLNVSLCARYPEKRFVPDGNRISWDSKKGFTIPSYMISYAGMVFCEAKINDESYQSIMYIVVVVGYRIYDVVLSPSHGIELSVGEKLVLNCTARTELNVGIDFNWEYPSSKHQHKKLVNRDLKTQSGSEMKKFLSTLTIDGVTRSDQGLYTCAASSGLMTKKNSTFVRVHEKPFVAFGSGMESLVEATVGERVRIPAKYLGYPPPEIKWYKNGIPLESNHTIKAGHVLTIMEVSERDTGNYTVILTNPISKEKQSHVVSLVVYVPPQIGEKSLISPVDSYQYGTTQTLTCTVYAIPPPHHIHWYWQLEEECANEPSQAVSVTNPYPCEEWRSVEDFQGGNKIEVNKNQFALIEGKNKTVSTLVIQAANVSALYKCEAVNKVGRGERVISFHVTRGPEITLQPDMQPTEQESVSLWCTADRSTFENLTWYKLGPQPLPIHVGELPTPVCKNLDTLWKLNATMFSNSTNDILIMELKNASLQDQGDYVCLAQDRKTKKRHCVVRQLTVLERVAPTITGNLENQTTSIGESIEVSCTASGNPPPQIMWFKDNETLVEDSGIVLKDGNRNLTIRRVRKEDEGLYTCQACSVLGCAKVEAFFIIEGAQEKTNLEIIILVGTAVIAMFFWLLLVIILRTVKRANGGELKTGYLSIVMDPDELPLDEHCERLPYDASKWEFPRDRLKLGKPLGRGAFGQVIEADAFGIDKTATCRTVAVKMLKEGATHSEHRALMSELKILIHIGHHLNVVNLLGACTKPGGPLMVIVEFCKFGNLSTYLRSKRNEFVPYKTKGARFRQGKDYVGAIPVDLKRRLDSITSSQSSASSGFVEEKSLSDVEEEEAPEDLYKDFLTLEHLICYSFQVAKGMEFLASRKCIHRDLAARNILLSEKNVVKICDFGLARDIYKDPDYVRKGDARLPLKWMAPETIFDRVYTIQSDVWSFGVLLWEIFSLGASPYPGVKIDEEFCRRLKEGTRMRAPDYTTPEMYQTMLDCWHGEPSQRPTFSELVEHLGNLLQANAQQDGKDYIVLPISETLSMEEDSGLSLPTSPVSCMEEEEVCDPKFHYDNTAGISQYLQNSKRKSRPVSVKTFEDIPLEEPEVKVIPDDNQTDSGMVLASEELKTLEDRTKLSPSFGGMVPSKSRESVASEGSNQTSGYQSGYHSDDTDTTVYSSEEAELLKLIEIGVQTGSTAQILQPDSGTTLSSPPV", "assay": "Kinase inhibition assay (KinaseProfiler, 33P-ATP)", "assay_type": "biochemical"}, "IKKα": {"target": "IKKα (Homo sapiens (Human), UniProt O15111)", "sequence (O15111 whole entry)": "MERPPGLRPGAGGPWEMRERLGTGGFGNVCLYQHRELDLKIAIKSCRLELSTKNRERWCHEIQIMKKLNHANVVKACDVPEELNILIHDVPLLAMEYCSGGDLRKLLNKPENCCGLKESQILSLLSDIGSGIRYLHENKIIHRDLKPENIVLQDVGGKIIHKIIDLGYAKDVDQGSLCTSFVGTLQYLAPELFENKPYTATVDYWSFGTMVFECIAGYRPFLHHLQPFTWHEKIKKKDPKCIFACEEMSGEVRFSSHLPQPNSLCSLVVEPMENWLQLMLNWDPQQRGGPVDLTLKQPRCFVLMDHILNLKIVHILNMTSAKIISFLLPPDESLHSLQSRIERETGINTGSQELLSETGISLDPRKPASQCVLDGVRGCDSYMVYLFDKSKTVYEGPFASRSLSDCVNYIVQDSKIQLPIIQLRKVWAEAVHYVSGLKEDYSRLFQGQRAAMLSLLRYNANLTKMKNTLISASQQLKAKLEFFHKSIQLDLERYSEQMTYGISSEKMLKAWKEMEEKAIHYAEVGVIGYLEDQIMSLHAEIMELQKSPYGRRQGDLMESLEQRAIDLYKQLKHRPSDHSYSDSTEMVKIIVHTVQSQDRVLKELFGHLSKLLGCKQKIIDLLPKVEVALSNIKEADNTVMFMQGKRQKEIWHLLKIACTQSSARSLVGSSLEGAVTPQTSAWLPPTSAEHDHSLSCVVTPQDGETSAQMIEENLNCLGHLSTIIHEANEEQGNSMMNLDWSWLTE", "assay": "Kinase inhibition assay (KinaseProfiler, 33P-ATP)", "assay_type": "biochemical"}, "MDA-MB-468": {"test_system": "MDA-MB-468", "assay": "Cell proliferation inhibition assay (MTT)", "assay_type": "cell-based", "conditions": "Homo sapiens, MDA-MB-468, 72 h, read-out: Proliferation inhibitory activity IC50", "protocol": "as §1"}, "A375": {"test_system": "A375", "assay": "Cell proliferation inhibition assay (MTT)", "assay_type": "cell-based", "conditions": "Homo sapiens, A-375, 72 h, read-out: Proliferation inhibitory activity IC50", "protocol": "as §1"}, "EGFR": {"target": "EGFR (Homo sapiens (Human), UniProt P00533)", "sequence (P00533 25-1210)": "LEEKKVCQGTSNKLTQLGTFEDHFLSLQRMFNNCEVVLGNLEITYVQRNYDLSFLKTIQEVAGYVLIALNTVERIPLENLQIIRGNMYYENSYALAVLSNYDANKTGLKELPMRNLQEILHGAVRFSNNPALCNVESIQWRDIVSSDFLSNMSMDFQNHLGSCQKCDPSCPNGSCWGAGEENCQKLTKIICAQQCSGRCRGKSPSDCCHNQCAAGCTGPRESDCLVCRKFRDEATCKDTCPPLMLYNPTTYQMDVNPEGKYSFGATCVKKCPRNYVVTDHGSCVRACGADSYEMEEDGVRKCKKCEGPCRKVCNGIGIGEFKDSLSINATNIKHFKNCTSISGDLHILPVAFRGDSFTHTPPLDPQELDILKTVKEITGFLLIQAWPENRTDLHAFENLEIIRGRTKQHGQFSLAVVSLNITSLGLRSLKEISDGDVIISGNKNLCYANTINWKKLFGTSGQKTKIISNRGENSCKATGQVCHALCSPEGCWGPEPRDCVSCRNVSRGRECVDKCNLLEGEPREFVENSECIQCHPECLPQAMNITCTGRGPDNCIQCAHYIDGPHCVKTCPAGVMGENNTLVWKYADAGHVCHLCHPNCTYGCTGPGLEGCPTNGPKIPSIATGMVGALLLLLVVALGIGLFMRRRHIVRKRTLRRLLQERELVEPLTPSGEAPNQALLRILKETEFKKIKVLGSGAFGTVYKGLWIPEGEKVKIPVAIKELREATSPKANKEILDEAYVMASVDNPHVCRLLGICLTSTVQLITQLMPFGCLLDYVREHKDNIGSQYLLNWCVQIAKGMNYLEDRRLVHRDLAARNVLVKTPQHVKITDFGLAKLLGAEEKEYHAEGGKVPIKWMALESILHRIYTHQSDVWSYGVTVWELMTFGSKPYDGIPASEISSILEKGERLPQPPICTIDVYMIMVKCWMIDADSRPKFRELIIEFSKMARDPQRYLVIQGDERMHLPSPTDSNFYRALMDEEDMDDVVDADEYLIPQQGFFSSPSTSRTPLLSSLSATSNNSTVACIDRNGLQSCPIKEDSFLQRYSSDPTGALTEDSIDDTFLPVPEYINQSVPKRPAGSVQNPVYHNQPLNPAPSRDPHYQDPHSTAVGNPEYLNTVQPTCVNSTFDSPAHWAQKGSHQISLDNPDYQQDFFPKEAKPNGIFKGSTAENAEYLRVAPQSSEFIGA", "assay": "Kinase inhibition assay (KinaseProfiler, 33P-ATP)", "assay_type": "biochemical"}, "HT29": {"test_system": "HT29", "assay": "Cell proliferation inhibition assay (MTT)", "assay_type": "cell-based", "conditions": "Homo sapiens, HT-29, 72 h, read-out: Proliferation inhibitory activity IC50", "protocol": "as §1"}, "MDA-MB-231": {"test_system": "MDA-MB-231", "assay": "Cell proliferation inhibition assay (MTT)", "assay_type": "cell-based, human"}}, "note": "Read-outs that look alike come from different tables or passages of the source.", "data": [{"smiles": "CCn1nc(C#Cc2cc(C(=O)Nc3ccc(CN4CCN(C)CC4)c(C(F)(F)F)c3)ccc2C)c2c(N)ncnc21", "note": "[Compound 3]", "values": [{"measurement": "IC50", "setting": "SW1990", "result": 356, "unit": "nM"}, {"measurement": "remaining activity at 10 µM", "setting": "Lyn", "result": 0, "unit": "%"}, {"measurement": "remaining activity at 10 µM", "setting": "JNK1α1(h)", "result": 66, "unit": "%"}, {"measurement": "IC50", "setting": "BT474", "result": "> 10000", "unit": "nM"}, {"measurement": "remaining activity at 10 µM", "setting": "TBK1(h)", "result": 75, "unit": "%"}, {"measurement": "remaining activity at 10 µM", "setting": "TrkA", "result": -2, "unit": "%"}, {"measurement": "IC50", "setting": "DDR1", "result": 9, "unit": "nM"}, {"measurement": "IC50", "setting": "RAMOS", "result": "~10000", "unit": "nM"}, {"measurement": "remaining activity at 10 µM", "setting": "Yes; Yes(h), compound at 10 μM, read-out: The percentage of the remaining active protein", "result": 0, "unit": "%"}, {"measurement": "IC50", "setting": "Yes; Yes, ATP at Km", "result": "< 1", "unit": "nM"}, {"measurement": "remaining activity at 10 µM", "setting": "Met(h)", "result": 24, "unit": "%"}, {"measurement": "remaining activity at 10 µM", "setting": "EphA8(h)", "result": -5, "unit": "%"}, {"measurement": "remaining activity at 10 µM", "setting": "Axl; Axl(h), compound at 10 μM, read-out: The percentage of the remaining active protein", "result": -4, "unit": "%"}, {"measurement": "IC50", "setting": "Axl; Axl, ATP at Km", "result": 578, "unit": "nM"}, {"measurement": "remaining activity at 10 µM", "setting": "ALK(h)", "result": 27, "unit": "%"}, {"measurement": "IC50", "setting": "EphB4", "result": 23, "unit": "nM"}, {"measurement": "IC50", "setting": "Abl", "result": "< 1", "unit": "nM"}, {"measurement": "IC50", "setting": "CFPAC", "result": 607, "unit": "nM"}, {"measurement": "remaining activity at 10 µM", "setting": "FAK(h)", "result": 43, "unit": "%"}, {"measurement": "remaining activity at 10 µM", "setting": "CDK7", "result": 70, "unit": "%"}, {"measurement": "remaining activity at 10 µM", "setting": "Itk(h)", "result": 5, "unit": "%"}, {"measurement": "IC50", "setting": "A549", "result": 199, "unit": "nM"}, {"measurement": "remaining activity at 10 µM", "setting": "ErbB2", "result": 3, "unit": "%"}, {"measurement": "remaining activity at 10 µM", "setting": "PKBα(h)", "result": 73, "unit": "%"}, {"measurement": "remaining activity at 10 µM", "setting": "RIPK2(h)", "result": 3, "unit": "%"}, {"measurement": "remaining activity at 10 µM", "setting": "KDR; KDR(h), compound at 10 μM, read-out: The percentage of the remaining active protein", "result": 2, "unit": "%"}, {"measurement": "IC50", "setting": "KDR; KDR, ATP at Km", "result": 17, "unit": "nM"}, {"measurement": "remaining activity at 10 µM", "setting": "IKKα; IKKα(h), compound at 10 μM, read-out: The percentage of the remaining active protein", "result": 2, "unit": "%"}, {"measurement": "IC50", "setting": "IKKα; IKKα, ATP at Km", "result": 353, "unit": "nM"}, {"measurement": "IC50", "setting": "MDA-MB-468", "result": 4480, "unit": "nM"}, {"measurement": "IC50", "setting": "A375", "result": 20.9, "unit": "nM"}, {"measurement": "remaining activity at 10 µM", "setting": "EGFR; EGFR(h), compound at 10 μM, read-out: The percentage of the remaining active protein", "result": 30, "unit": "%"}, {"measurement": "IC50", "setting": "EGFR; EGFR, ATP at Km", "result": 3520, "unit": "nM"}, {"measurement": "IC50", "setting": "HT29", "result": 166, "unit": "nM"}, {"measurement": "IC50", "setting": "MDA-MB-231; Homo sapiens, MDA-MB-231, 72 h, read-out: Proliferation inhibitory activity IC50", "result": 11.3, "unit": "nM"}, {"measurement": "IC50", "setting": "MDA-MB-231; read-out: Proliferative inhibitory activity MDA-MB-231 (IC50 class)", "result": "< 100", "unit": "nM"}]}]}
